Five compounds from US20060194853A1, “Alkyl benzamides” (priority 2004, published 2006) can be followed below.

Molecules are shown by their SMILES. pIC50: −log10 of the molar value.

Holding throughout (type): cell-based
The test system of experiment [1] is Trichomonas vaginalis UCH-1. Description: in vitro growth inhibition of Trichomonas vaginalis. The following applies: for pIC50: in vitro, concentration required to inhibit 50% of the growth of the organisms; for effective against T. vaginalis: result in words.
Experiment [2] has as its system Giardia intestinalis JKH-1. Kind of experiment: in vitro growth inhibition of Giardia intestinalis. The note with it: for pIC50: Giardia duodenalis, in vitro, concentration required to inhibit 50% of the growth of the organisms; for effective against G. intestinalis: result in words.
In another experiment the test system is Herpes Varicella A. Description: activity against Herpes Varicella (VZV). The note with it: result in words.
The test system of another experiment is Influenza A. Kind of experiment: activity against Influenza A. The following applies: result in words.
For a further experiment, the system named is P. falciparum. Description: activity against P. falciparum. The note with it: result in words.
A further experiment deals with Influenza B. Description: activity against Influenza B. The following applies: result in words.
The test system of another experiment is Helicobacter pylori. Description: activity against Helicobacter pylori. The note with it: result in words.
A further experiment relates to Campylobacter jejuni. Kind of experiment: activity against Campylobacter jejuni. The note with it: result in words.

`O=C(Nc1ncc([N+](=O)[O-])s1)c1ccccc1O` [Compound A, 2-hydroxy-N-(5-nitro-2-thiazolyl) benzamide, reference compound] had a pIC50 in experiment [1] of 5.82.

For the compound `CC(=O)Oc1ccccc1C(=O)Nc1ncc([N+](=O)[O-])s1` [Compound B, 2-acetyloxy-N-(5-nitro-2-thiazolyl)benzamide, reference compound], the pIC50 in experiment [1] (Trichomonas vaginalis, UCH1) is 6.22; in experiment [2], 4.90.

As for `CC(=O)Oc1c(C)cccc1C(=O)Nc1ncc([N+](=O)[O-])s1` [Compound D, 2-acetyloxy-3-methyl-N-(5-nitro-2-thiazolyl) benzamide], the “effective against Herpes VZV” value with Herpes Varicella A is recorded as “effective”. For the same compound, in the experiment with Influenza A, the “effective against Influenza A” value was “effective”. The negative-log IC50 (pIC50) in experiment [1] (Trichomonas vaginalis, UCH1) is 5.09; in experiment [2], 6.25. In addition, the “effective against T. vaginalis” value in experiment [1] is on record as “effective”. In the experiment with P. falciparum, the “effective against P. falciparum” value is “effective”. Besides, in the experiment on Influenza B, the “effective against Influenza B” value was “effective”. Further, the “effective against H. Pylori” value in the experiment on Helicobacter pylori is recorded as “effective”. Besides, the “potency against Giardia intestinalis compared to nitazoxanide” value in experiment [2] (comparison in words, from TABLE I) was “significantly more potent than nitazoxanide”. Further, the “effective against G. intestinalis” value in experiment [2] was “effective”. In addition, the “effective against C. jejuni” value in the experiment with Campylobacter jejuni is reported as “effective”.

Take `CC(=O)Oc1cc(C)ccc1C(=O)Nc1ncc([N+](=O)[O-])s1` [Compound F, 2-acetyloxy-4-methyl-N-(5-nitro-2-thiazolyl) benzamide]: the “effective against T. vaginalis” value in experiment [1] is listed as “effective”. Besides, in experiment [2], the “effective against G. intestinalis” value was “effective”.

Take `CC(=O)Oc1ccc(C)cc1C(=O)Nc1ncc([N+](=O)[O-])s1` [Compound H, 2-acetyloxy-5-methyl-N-(5-nitro-2-thiazolyl) benzamide]: the “effective against T. vaginalis” value in experiment [1] is recorded as “effective”. Besides, the “effective against G. intestinalis” value in experiment [2] is “effective”.

As usually defined, the pIC50 is the negative decadic logarithm of the IC50, by convention in mol/L.
